In patent US6951863B2, “Pyridoarylphenly oxazolidinone antibacterials, and related compositions and methods” (Ortho-McNeil Pharmaceutical, Inc., priority 2001, dated 2005) one finds MIC and melting point data, which are given here for eleven molecules.

One data set has as its system S. aureus OC2878. The data set can be described thus: MIC, microdilution broth method (NCCLS). To be noted: Staphylococcus aureus; S. aureus OC2878 (MRSA); 35° C., 16-20 hours; read-out: MIC (μg/mL) in Test Strains S. aureus OC2878. The data set is classed as cell-based. How it is done: (§1) Minimal inhibitory concentration (MIC) has been an indicator of in vitro antibacterial activity widely used in the art. The in vitro antimicrobial activity of the compounds was determined by the microdilution broth method following the test method from the National Committee for Laboratory Standards (NCCLS). This method is described in the NCCLS Document M7-A4, Vol. 17, No. 2, “Methods for Dilution Antimicrobial Susceptibility Test for Bacteria that Grow Aerobically—Fourth Edition”, which is incorporated herein by reference.
(§2) In this method two-fold serial dilutions of drug in cation adjusted Mueller-Hinton broth are added to wells in microdilution trays. The test organisms are prepared by adjusting the turbidity of actively growing broth cultures so that the final concentration of test organism after it is added to the wells is approximately 5×10^4 CFU/well.
(§3) Following inoculation of the microdilution trays, the trays are incubated at 35° C. for 16-20 hours and then read. […] The amount of growth in the wells containing the test compound is compared with the amount of growth in the growth-control wells (no test compound) used in each tray. As set forth in Table 1, some compounds of the present invention were tested against a variety of pathogenic bacteria resulting in a range of activities, from 1 to >128 μg/mL depending on the organism tested. S. aureus OC2878 is a MRSA and E. faecium OC3312 is a vancomycin-resistant enterococcus.

The subject of another data set is S. aureus OC4172. In words: MIC, microdilution broth method (NCCLS). The format is cell-based. To be noted: Staphylococcus aureus, 35° C., 16-20 hours, read-out: MIC (μg/mL) in Test Strains S. aureus OC4172. The procedure:
as §1, §2, §3

A further data set deals with E. faecium OC3312. In words: MIC, microdilution broth method (NCCLS). The format is cell-based. To be noted: E. faecium OC3312 (vancomycin-resistant enterococcus); 35° C., 16-20 hours; read-out: MIC (μg/mL) in Test Strains E. faecium OC3312. The procedure:
as §1, §2, §3

In brackets after ≈: the same amount, converted by molar mass.

For the molecule `CC(=O)NC[C@H]1CN(c2ccc(N3CCc4nc(-c5cnccn5)ncc4C3)c(F)c2)C(=O)O1` [Compound 9, acetamide, N-[[(5S)-3-[4-(7,8-dihydro-2-pyrazinylpyrido[4,3-d]pyrimidin-6(5H)-yl)-3-fluorophenyl]-2-oxo-5-oxazolidinyl]methyl]-], the MIC in the data set with S. aureus OC2878 came out at 4 µg/mL (≈ 8.63 µM); in the data set with S. aureus OC4172 it was 4 µg/mL (≈ 8.63 µM); with E. faecium OC3312, 8 µg/mL (≈ 17.3 µM).

For the molecule `CC(=O)NC[C@H]1CN(c2ccc(N3CCc4ccncc4C3)c(F)c2)C(=O)O1` [Compound 3, acetamide, N-[[(5S)-3-[4-(3,4-dihydro-2,7-naphthyridin-2(1H)-yl)-3-fluorophenyl]-2-oxo-5-oxazolidinyl]methyl]-], the melting point was 141 to 144 °C (dec.). The MIC in the data set on S. aureus OC2878 came out at 4 µg/mL (≈ 10.4 µM). For the same molecule, the MIC in the data set on S. aureus OC4172 was determined as 8 µg/mL (≈ 20.8 µM). Also, the MIC in the data set on E. faecium OC3312 stood at 8 µg/mL (≈ 20.8 µM).

On to `CC(=O)NC[C@H]1CN(c2ccc(N3CCc4nc(-c5ccncc5)ncc4C3)c(F)c2)C(=O)O1` [Compound 8, acetamide, N-[[(5S)-3-[4-[7,8-dihydro-2-(4-pyridinyl)pyrido[4,3-d]pyrimidin-6(5H)-yl]-3-fluorophenyl]-2-oxo-5-oxazolidinyl]methyl]-], for which the figures for the MIC in the data set on S. aureus OC2878, in the data set on S. aureus OC4172 and in the data set on E. faecium OC3312 were 2 µg/mL (≈ 4.32 µM), 2 µg/mL (≈ 4.32 µM) and 4 µg/mL (≈ 8.65 µM), respectively.

As for `CC(=O)NC[C@H]1CN(c2ccc(N3CCc4ncncc4C3)c(F)c2)C(=O)O1` [Compound 5, acetamide, N-[[(5S)-3-[4-(7,8-dihydropyrido[4,3-d]pyrimidin-6(5H)-yl)-3-fluorophenyl]-2-oxo-5-oxazolidinyl]methyl]-], the MIC in the data set with S. aureus OC2878 was found to be 2 µg/mL (≈ 5.19 µM); with S. aureus OC4172, 4 µg/mL (≈ 10.4 µM); in the data set on E. faecium OC3312, 8 µg/mL (≈ 20.8 µM).

Turning to `CC(=O)NC[C@H]1CN(c2ccc(N3CCc4c(cnn4C)C3)c(F)c2)C(=O)O1` [Compound 11, acetamide, N-[[(5S)-3-[4-(1,4,6,7-tetrahydro-1-methyl-5H-pyrazolo[4,3-c]pyridin-5-yl)-3-fluorophenyl]-2-oxo-5-oxazolidinyl]methyl]-], the results for the MIC in the data set with S. aureus OC2878, in the data set with S. aureus OC4172 and with E. faecium OC3312 were 8 µg/mL (≈ 20.6 µM), 16 µg/mL (≈ 41.3 µM) and 16 µg/mL (≈ 41.3 µM), respectively.

Consider `CC(=O)NC[C@H]1CN(c2ccc(N3CCc4nc(C)ncc4C3)c(F)c2)C(=O)O1` [Compound 6, acetamide, N-[[(5S)-3-[4-(7,8-dihydro-2-methylpyrido[4,3-d]pyrimidin-6(5H)-yl)-3-fluorophenyl]-2-oxo-5-oxazolidinyl]methyl]-], for which the MIC in the data set on S. aureus OC2878 came out at 2 µg/mL (≈ 5.01 µM); in the data set on S. aureus OC4172 it was 4 µg/mL (≈ 10 µM); in the data set on E. faecium OC3312, 8 µg/mL (≈ 20 µM).

As to `CC(=O)NC[C@H]1CN(c2ccc(N3CCc4cnccc4C3=O)c(F)c2)C(=O)O1` [Compound 4, acetamide, N-[[(5S)-3-[4-(3,4-dihydro-1-oxo-2,6-naphthyridin-2(1H)-yl)-3-fluorophenyl]-2-oxo-5-oxazolidinyl]methyl]-], the MIC in the data set with S. aureus OC2878 worked out at 16 µg/mL (≈ 40.2 µM); in the data set with S. aureus OC4172 it was 32 µg/mL (≈ 80.3 µM); in the data set on E. faecium OC3312, 32 µg/mL (≈ 80.3 µM).

Turning to `O=C1O[C@@H](CO)CN1c1ccc(N2CCc3ccccc3C2)c(F)c1` [Compound 1, 2-oxazolidinone, 3-[4-(3,4-dihydro-2(1H)-isoquinolinyl)-3-fluorophenyl]-5-(hydroxymethyl)-, (5R)-], the MIC is 32 µg/mL (≈ 93.5 µM) with S. aureus OC2878, 128 µg/mL (≈ 374 µM) with S. aureus OC4172 and greater than 128 µg/mL in the data set with E. faecium OC3312.

As to `CC(=O)NC[C@H]1CN(c2ccc(N3CCc4ccccc4C3)c(F)c2)C(=O)O1` [Compound 2, acetamide, N-[[(5S)-3-[4-(3,4-dihydro-2(1H)-isoquinolinyl)-3-fluorophenyl]-2-oxo-5-oxazolidinyl]methyl]-], the melting point lay in the range of 131 to 134 °C. The MIC with S. aureus OC2878 was 4 µg/mL (≈ 10.4 µM). In the data set on S. aureus OC4172, the MIC is 8 µg/mL (≈ 20.9 µM). The MIC in the data set with E. faecium OC3312 was 8 µg/mL (≈ 20.9 µM).

Regarding `CC(=O)NC[C@H]1CN(c2ccc(N3CCc4nc(-c5csc(C)n5)ncc4C3)c(F)c2)C(=O)O1` [Compound 7, acetamide, N-[[(5S)-3-[4-[7,8-dihydro-2-(2-methyl-4-thiazolyl)pyrido[4,3-d]pyrimidin-6(5H)-yl]-3-fluorophenyl]-2-oxo-5-oxazolidinyl]methyl]-], the MIC in the data set on S. aureus OC2878, in the data set on S. aureus OC4172 and with E. faecium OC3312 was 8 µg/mL (≈ 16.6 µM) in each case.

`CC(=O)NC[C@H]1CN(c2ccc(N3CCc4[nH]ncc4C3)c(F)c2)C(=O)O1` [Compound 10, acetamide, N-[[(5S)-3-[4-(1,4,6,7-tetrahydro-5H-pyrazolo[4,3-c]pyridin-5-yl)-3-fluorophenyl]-2-oxo-5-oxazolidinyl]methyl]-]: the MIC in the data set with S. aureus OC2878 is 8 µg/mL (≈ 21.4 µM); with S. aureus OC4172 it was 8 µg/mL (≈ 21.4 µM); in the data set on E. faecium OC3312 it was 16 µg/mL (≈ 42.9 µM).
